Assay results from patent EP0189679A1, “Novel crystalline form of 1-benzhydryl-4-allylpiperazine dihydrochloride and method for the production thereof” (SO "PHARMACHIM", priority 1984, dated 1986).

Columns and labels:
[1] = Solubility profile / rate of dissolution of pulverous specimens in water; assay type: physicochemical; details: 25°C
Method: The respective solubilities of the three crystalline modifications have also been studied. The rate of dissolution of pulverous specimens in water was determined in the following manner: a finely ground powder formed from the crystalline form under study in a quantity twice as great as necessary to produce a saturated solution in water is placed in a receptacle containing 100 ml of distilled water. The suspension is stirred using a magnetic agitator (600 r.p.m.) at a temperature of 25°C. At predetermined time intervals, samples are taken and, after filtering through a Milipor filter ([…]) they are diluted to the necessary volume for performing a quantitative determination. For this purpose, an absorption maximum at 250 nm is used.

[2] = Initial rate of dissolution of pressed discs in 0.1 N hydrochloric acid; assay type: physicochemical; details: pressed disc 200 mg substance + 100 mg polyvinylchloride, 100 ml 0.1 N hydrochloric acid, 25°C, linear part between first and fifth minutes
Method: In Table 4 which follows, there are compared the rates of dissolution of the. three crystalline forms. Investigations were carried out with pressed discs made up of 200 mg of the test substance and 100 mg of polyvinylchloride pressed at a pressure of 10 tonnes for 5 minutes in a plane around the disc using a pill making matrix with a diameter of 13 mm. The discs thus obtained are immersed by means of a special holding device in 100 ml of 0.1 N hydrochloric acid solution. Stirring was carried out by means of an electromagnetic agitator. The testing temperature employed was 25°C. The initial rates of dissolution are determined from the dissolution curves for the pressed discs, using the linear part between the first and fifth minutes. Comparison of data for the initial rate of dissolution of the three crystalline forms indicate that crystal form "A" has an initial rate of dissolution which is 3 to 4 times greater than that of the other forms.

[3] = Hygroscopicity study of ground samples in a humidity chamber; assay type: physicochemical; details: 90% humidity, 25°C, period of 30 days
Method: Hygroscopicity studies have been carried out by placing samples of the three crystalline forms with the same particle size resulting from grinding of samples of the three crystalline forms in a vibratory mill. The studies take place in a chamber with 90% humidity and at a temperature of 25°C. At intervals, samples are taken in order to determine their water content and their crystalline structure by means of the methods described hereinabove. […] They are not hygroscopic and are physically stable under the test conditions..

[4] = Stability study of the solid forms under ambient storage conditions in light-permeable glass jars; assay type: physicochemical; details: ambient storage in glass jars permitting passage of light; over one year and after three years
Source text: More exhaustive stability studies have been performed under ambient storage conditions in glass jars which permit the passage of light therethrough. […] The three crystalline forms are chemically and physically stable under normal storage conditions.

[5] = Stability in aqueous solution (injectible compositions) of different crystalline forms; assay type: physicochemical; details: dihydrochloride; for Content of active substance in the solution in %, In storing 1 year: stored 1 year; for Content of active substance in the solution in %, In storing 3 years: stored 3 years
Source text: Table 3 indicates comparative data concerning the stability of injectible forms of pharmaceutical compositions containing either crystalline form "A" according to the present invention and form "B" (aligerone prepared according to the method described in the aforementioned references to Zikolova and Ninov).

[6] = tested on: blood vessels of the brain; details: from Zikolova and Ninov and Drugs of the Future 1980, 5(1); cited from earlier work
[7] = powder in 100 ml distilled water, 600 r.p.m.

In the case of `C=CCN1CCN(C(c2ccccc2)c2ccccc2)CC1.Cl.Cl.O.O` [Crystalline hydrate, 1-benzhydryl-4-allylpiperazine dihydrochloride dihydrate, reference compound], the “time until solubility reaches a constant value” [1, 7] is reported as 60 min and the “Initial rate of dissolving” value [2] is reported as 0.333 mg/mL/min.

With `C=CCN1CCN(C(c2ccccc2)c2ccccc2)CC1.Cl.Cl` [Form "A", 1-benzhydryl-4-allyl-piperazine dihydrochloride] the “hygroscopicity (water absorption)” value [3] was “non-hygroscopic”, the “chemical and physical stability on storage” value [4] was “stable on storage under normal conditions” and the “Content of active substance in the solution in %, Initial concentration” value ([5]; listed as A) was 1.251%. The “Content of active substance in the solution in %, In storing 1 year” value ([5]; listed as A) was 1.250%, the “Content of active substance in the solution in %, In storing 3 years” value ([5]; listed as A) was 1.198% and the “time to attain maximum solubility” value [1, 7] was no more than 2 min. For the same compound, the “time until solubility reaches a constant value” ([1]; powder in 100 ml distilled water, 600 r.p.m., listed as form "A", dihydrochloride) was 10 min and the “solubility in comparison with the other crystalline forms” value ([1]; water, compared with anhydrous form "B" and the crystalline hydrate) was “higher equilibrium solubility”.

With `C=CCN1CCN(C(c2ccccc2)c2ccccc2)CC1.Cl.Cl` [Form "B", 1-benzhydryl-4-allylpiperazine dihydrochloride] the “Content of active substance in the solution in %, Initial concentration” value ([5]; listed as B) was 1.255%, the “Content of active substance in the solution in %, In storing 1 year” value ([5]; listed as B) was 1.105% and the “Content of active substance in the solution in %, In storing 3 years” value ([5]; listed as B) was 0.925%. For the same compound, the “time until solubility reaches a constant value” ([1]; powder in 100 ml distilled water, 600 r.p.m., listed as form "B", dihydrochloride) was 60 min and the “Initial rate of dissolving” value ([2]; listed as B, dihydrochloride) was 0.467 mg/mL/min.

In the case of `C=CCN1CCN(C(c2ccccc2)c2ccccc2)CC1.Cl.Cl` [aligerone, 1-benzhydryl-4-allyl-piperazine dihydrochloride], the “effect on blood circulation and oxygen concentration of the brain compared with cinnarizine” value [6] is given as “stronger than that of cinnarizine”.
